# According to patent US12215106B2, “Pharmaceutical compounds and therapeutic methods” (RUTGERS, THE STATE UNIVERSITY OF NEW JERSEY, priority 2018, dated 2025):
# Counter-ions that a name gives are not always drawn. Like-named read-outs stand apart in the source and are kept apart here. Marks after values point to notes of the source that are not given here.
# Experiment: Plasma pharmacokinetics and brain distribution after single IV, IP and oral administration
# Type: in vivo
# Conditions: male, C57BL/6, mouse
# Description: (§1) The objective of this study was to investigate the plasma pharmacokinetics and brain distribution of Compound (14 in male C57BL/6 mice following a single intravenous, intraperitoneal and oral administration. A group of sixty-three male mice were divided into three groups (Group 1: 2 mg/kg/IV; Group 2: 10 mg/kg/IP and Group 3: 10 mg/kg/PO) with each group comprising of twenty-one mice.
# Animals in Group 1 were administered intravenously with Compound 15 solution formulation in 5% NMP, 5% Solutol HS-15, 30% PEG-400 and 60% Captisol (20% w/v) at 2 mg/kg dose. […] Considering mortality intravenous dose was reduced to 2 mg/kg.
# Animals in Group 2 and 3 were administered with Compound 15 solution formulation in 5% NMP, 5% Solutol HS-15, 30% PEG-400 and 60% Captisol (20% w/v) at a dose of 10 mg/kg by intraperitoneal and oral route respectively.
# (§2) Blood samples (approximately 60 μL) were collected under light isoflurane anesthesia from retro orbital plexus from a set of three mice at 0.08, 0.35, 1, 3, 6, 12 and 24 hr. Plasma samples were separated by centrifugation of whole blood and stored below −70±10° C. until bioanalysis. Immediately after collection of blood, brain samples were collected from set of three mice at each time point. Brain samples were homogenized using ice-cold phosphate buffer saline (pH-7.4) in a ratio of 2 (buffer):1(brain); and homogenates were stored below −70±10° C. until analysis. Total homogenate volume was three times the brain weight. All samples were processed for analysis by protein precipitation using acetonitrile and analyzed with fit-for-purpose LC/MS/MS method (LLOQ2.00 ng/mL for plasma and 3.00 ng/g for brain). Pharmacokinetic parameters were calculated using the non-compartmental analysis tool of Phoenix WinNonlin® (Version 7.0). Pharmacokinetic parameters of Compound 15 are summarized below.
# as §1, with “Compound 16” for “Compound (14”, “1: 10” for “1: 2”
# Animals in Group 1 were administered intravenously with Compound 16 solution formulation in 5% NMP, 5% Solutol HS-15 and 90% normal saline at 10 mg/kg dose.
# Animals in Group 2 and 3 were administered with Compound 16 solution formulation in 5% NMP, 5% Solutol HS-15 and 90% normal saline at a dose of 10 mg/kg by intraperitoneal and oral route respectively.
# as §2, with “(LLOQ—1.00” for “(LLOQ2.00”, “16” for “15”
# as §1, with “17” for “(14”, “mice. […]” for “mice.”
# [1] = brain, ip, 10 mg/kg, IP 10 mg/kg, read-out: Brain-to-plasma ratio
# [2] = brain, po, 10 mg/kg, PO 10 mg/kg, read-out: Brain-to-plasma ratio
# [3] = brain/plasma, iv, 10 mg/kg, IV 10 mg/kg, read-out: Brain-to-plasma ratio
# [4] = in vivo, ip, 10 mg/kg, Brain concentration, individual animal
# [5] = in vivo, ip, 10 mg/kg, Mean brain conc.
# [6] = in vivo, ip, 10 mg/kg, Mean plasma conc.
# [7] = in vivo, ip, 10 mg/kg, Plasma concentration, individual animal
# [8] = in vivo, iv, 10 mg/kg, Brain concentration, individual animal
# [9] = in vivo, iv, 10 mg/kg, Mean brain conc.
# [10] = in vivo, iv, 10 mg/kg, Mean plasma conc.
# [11] = in vivo, iv, 10 mg/kg, Plasma concentration, individual animal
# [12] = in vivo, po, 10 mg/kg, Brain concentration, individual animal
# [13] = in vivo, po, 10 mg/kg, Mean brain conc.
# [14] = in vivo, po, 10 mg/kg, Mean plasma conc.
# [15] = in vivo, po, 10 mg/kg, Plasma concentration, individual animal
compound,measurement,setting,value
"Cc1nc2ccccn2c1-c1csc(Nc2ccc3c(c2)OC(F)(F)O3)n1 [Compound 16, N-(2,2-difluorobenzo[d][1,3]dioxol-5-yl)-4-(2-methylimidazo[1,2-a]pyridin-3-yl)thiazol-2-amine hydrochloride]",Kp at 3 h,"brain and plasma, iv, 10 mg/kg, IV 10 mg/kg, read-out: Brain-to-plasma ratio",1.6
same,Kp at 0.08 h,[1],0.78
same,Kp at 0.35 h,[1],1.6
same,Kp at 1 h,[1],2.01
same,Kp at 3 h,[1],4.34
same,Kp,"brain, ip, 10 mg/kg, IP 10 mg/kg, read-out: brain-to-plasma ratio, range over time",0.78 to 4.34
same,Kp,"brain, iv, 10 mg/kg, IV 10 mg/kg, read-out: brain-to-plasma ratio, range over time",0.96 to 2.78
same,Kp at 0.08 h,[2],1.07
same,Kp at 0.35 h,[2],1.83
same,Kp at 1 h,[2],1.67
same,Kp at 3 h,[2],1.73
same,Kp at 6 h,"brain, po, 10 mg/kg, PO 10 mg/kg, 6 hr, read-out: Brain-to-plasma ratio",1.81
same,Kp,"brain, po, 10 mg/kg, PO 10 mg/kg, read-out: brain-to-plasma ratio, range over time",1.07 to 1.81
same,Kp,"brain, po, 10 mg/kg, summary data, read-out: Brain to plasma ratio following a single oral dose",1.81
same,Kp at 0.08 h,[3],1.05
same,Kp at 0.35 h,[3],0.96
same,Kp at 1 h,[3],2.78
same,Brain concentrations quantifiable up to,"in vivo, ip, 10 mg/kg",up to 3 hr
same,Plasma concentrations quantifiable up to,"in vivo, ip, 10 mg/kg",up to 3 hr
same,"Brain concentration, individual animal","in vivo, ip, 10 mg/kg, 6 h",0.00 ng/g
same,"Plasma concentration, individual animal","in vivo, ip, 10 mg/kg, 6 h",0.00 ng/mL
same,"Brain concentration, individual animal","in vivo, ip, 10 mg/kg, 12 h",0.00 ng/g
same,"Plasma concentration, individual animal","in vivo, ip, 10 mg/kg, 12 h",0.00 ng/mL
same,"Brain concentration, individual animal","in vivo, ip, 10 mg/kg, 24 h",0.00 ng/g
same,"Plasma concentration, individual animal","in vivo, ip, 10 mg/kg, 24 h",0.00 ng/mL
same,concentration at 6 h,[4],0 ng/g
same,concentration at 12 h,[4],0 ng/g
same,concentration at 24 h,[4],0 ng/g
same,concentration at 0.08 h,[5],558 ng/g
same,concentration at 0.35 h,[5],680 ng/g
same,concentration at 1 h,[5],159 ng/g
same,concentration at 3 h,[5],6.21 ng/g
same,concentration at 6 h,[5],0 ng/g
same,concentration at 12 h,[5],0 ng/g
same,concentration at 24 h,[5],0 ng/g
same,concentration at 0.08 h,[6],713 ng/mL
same,concentration at 0.35 h,[6],426 ng/mL
same,concentration at 1 h,[6],79.1 ng/mL
same,concentration at 3 h,[6],1.43 ng/mL
same,concentration at 6 h,[6],0 ng/mL
same,concentration at 12 h,[6],0 ng/mL
same,concentration at 24 h,[6],0 ng/mL
same,concentration at 0.08 h,[7],688 ng/mL
same,concentration at 0.35 h,[7],391 ng/mL
same,concentration at 1 h,[7],62 ng/mL
same,concentration at 6 h,[7],0 ng/mL
same,concentration at 12 h,[7],0 ng/mL
same,concentration at 24 h,[7],0 ng/mL
same,Brain concentrations quantifiable up to,"in vivo, iv, 10 mg/kg",up to 6 hr
same,"Vss, fold more than normal volume of total body water (0.7 L/kg)","in vivo, iv, 10 mg/kg",6.6 fold
same,"Plasma concentration, individual animal","in vivo, iv, 10 mg/kg, 6 hr",0.00 ng/mL
same,"Brain concentration, individual animal","in vivo, iv, 10 mg/kg, 12 hr",0.00 ng/g
same,"Plasma concentration, individual animal","in vivo, iv, 10 mg/kg, 12 hr",0.00 ng/mL
same,"Brain concentration, individual animal","in vivo, iv, 10 mg/kg, 24 hr",0.00 ng/g
same,"Plasma concentration, individual animal","in vivo, iv, 10 mg/kg, 24 hr",0.00 ng/mL
same,concentration at 12 hr,[8],0 ng/g
same,concentration at 24 hr,[8],0 ng/g
same,concentration at 0.08 h,[9],1660 ng/g
same,concentration at 0.35 h,[9],514 ng/g
same,concentration at 1 h,[9],225 ng/g
same,concentration at 3 h,[9],9.01 ng/g
same,concentration at 6 hr,[9],5.13 ng/g
same,concentration at 12 hr,[9],0 ng/g
same,concentration at 24 hr,[9],0 ng/g
same,concentration at 0.08 h,[10],1580 ng/mL
same,concentration at 0.35 h,[10],535 ng/mL
same,concentration at 1 h,[10],80.7 ng/mL
same,concentration at 3 h,[10],5.64 ng/mL
same,concentration at 6 hr,[10],0 ng/mL
same,concentration at 12 hr,[10],0 ng/mL
same,concentration at 24 hr,[10],0 ng/mL
same,concentration at 0.08 hr,[11],2190 ng/mL
same,concentration at 0.35 hr,[11],417 ng/mL
same,concentration at 1 hr,[11],60.9 ng/mL
same,concentration at 6 hr,[11],0 ng/mL
same,concentration at 12 hr,[11],0 ng/mL
same,concentration at 24 hr,[11],0 ng/mL
same,Brain concentrations quantifiable up to,"in vivo, po, 10 mg/kg",up to 12 hr
same,Plasma concentrations quantifiable up to,"in vivo, po, 10 mg/kg",up to 6 hr
same,"Brain concentration, individual animal","in vivo, po, 10 mg/kg, 0.08 h",115.35 ng/g
same,Mean plasma conc.,"in vivo, po, 10 mg/kg, 3 h",3.35^f ng/mL
same,"Plasma concentration, individual animal","in vivo, po, 10 mg/kg, 12 h",0.00 ng/mL
same,"Plasma concentration, individual animal","in vivo, po, 10 mg/kg, 24 h",0.00 ng/mL
same,concentration at 0.08 h,[12],221 ng/g
same,concentration at 24 h,[12],0 ng/g
same,concentration at 0.08 h,[13],187 ng/g
same,concentration at 0.35 h,[13],254 ng/g
same,concentration at 1 h,[13],48.9 ng/g
same,concentration at 3 h,[13],5.78 ng/g
same,concentration at 6 h,[13],4.52 ng/g
same,concentration at 12 h,[13],3.9 ng/g
same,concentration at 24 h,[13],0 ng/g
same,concentration at 0.08 h,[14],175 ng/mL
same,concentration at 0.35 h,[14],138 ng/mL
same,concentration at 1 h,[14],29.3 ng/mL
same,concentration at 3 h,[14],3.35 ng/mL
same,concentration at 6 h,[14],2.5 ng/mL
same,concentration at 12 h,[14],0 ng/mL
same,concentration at 24 h,[14],0 ng/mL
same,concentration at 12 h,[15],0 ng/mL
same,concentration at 24 h,[15],0 ng/mL
same,bioavailability,"plasma, po, 10 mg/kg, PO 10 mg/kg, AUClast considered, read-out: Oral bioavailability, % F",20%
same,bioavailability,"plasma, po, 10 mg/kg, summary data, read-out: Oral bioavailability",20%
same,Tmax,"plasma, IP 10 mg/kg",4.8 min
same,clearance,"plasma, IV 10 mg/kg, read-out: CL, plasma clearance",230 mL/min/kg
same,half-life,"plasma, IV 10 mg/kg, read-out: T1/2, terminal elimination half-life (converted)",25.8 min
same,Tmax,"plasma, PO 10 mg/kg",4.8 min
